Reference: the NIST ThermoML archive (doi:10.1021/je060271a)

Conditions: 283.15 K, Liquid, Vibrating tube method

CCCCCC(=O)OCC(COC(=O)CCCCC)(COC(=O)CCCCC)COC(=O)CCCCC [pentaerythritol tetrahexanoate]
Conditions | mass density [kg/m3]
383.6 kPa | 1004.5
385.7 kPa | 1004.2
387.9 kPa | 1004.3
390 kPa | 1004.4
391.9 kPa | 1004.3
394 kPa | 1004.4
396.6 kPa | 1004.3
398.4 kPa | 1004.4
401 kPa | 1004.4
413.1 kPa | 1004.4
415.2 kPa | 1004.3
417.8 kPa | 1004.3
420.6 kPa | 1004.3
423.2 kPa | 1004.4
425.6 kPa | 1004.3
428.4 kPa | 1004.4
430.9 kPa | 1004.5
434 kPa | 1004.4
436.2 kPa | 1004.5
442.3 kPa | 1004.4
444.9 kPa | 1004.4
448.1 kPa | 1004.4
450.8 kPa | 1004.4
453.4 kPa | 1004.4
456.8 kPa | 1004.4
459.7 kPa | 1004.4
462.7 kPa | 1004.4
466 kPa | 1004.4
469.4 kPa | 1004.4
472.6 kPa | 1004.4
476 kPa | 1004.3
479.5 kPa | 1004.3
482.8 kPa | 1004.4
486 kPa | 1004.4
489.8 kPa | 1004.3
493.6 kPa | 1004.3
496.7 kPa | 1004.5
512 kPa | 1004.5
515.7 kPa | 1004.4
519.1 kPa | 1004.5
523.7 kPa | 1004.3
527.3 kPa | 1004.5
531.3 kPa | 1004.4
535.3 kPa | 1004.4
540.3 kPa | 1004.4
544 kPa | 1004.4
548.5 kPa | 1004.5
553 kPa | 1004.5
557 kPa | 1004.5
561.4 kPa | 1004.4
566.4 kPa | 1004.3
571.4 kPa | 1004.5
576.3 kPa | 1004.4
580.5 kPa | 1004.5
585.3 kPa | 1004.4
590.2 kPa | 1004.5
595.8 kPa | 1004.5
600.1 kPa | 1004.5
604.8 kPa | 1004.6
611.2 kPa | 1004.5
616.8 kPa | 1004.5
621.8 kPa | 1004.6
627.7 kPa | 1004.6
633.3 kPa | 1004.5
638.7 kPa | 1004.5
644.2 kPa | 1004.5
650.7 kPa | 1004.4
657.1 kPa | 1004.4
676 kPa | 1004.5
681.9 kPa | 1004.5
688 kPa | 1004.5
694.4 kPa | 1004.5
700.5 kPa | 1004.5
707.3 kPa | 1004.7
714.2 kPa | 1004.5
720.3 kPa | 1004.5
728 kPa | 1004.5
734.6 kPa | 1004.6
742.2 kPa | 1004.6
749.5 kPa | 1004.6
756.6 kPa | 1004.6
763.9 kPa | 1004.6
771.1 kPa | 1004.5
780.4 kPa | 1004.7
787.7 kPa | 1004.6
796.1 kPa | 1004.5
803.7 kPa | 1004.6
821.4 kPa | 1004.6
829.9 kPa | 1004.6
840 kPa | 1004.6
848.9 kPa | 1004.6
857.7 kPa | 1004.6
866.4 kPa | 1004.7
877.2 kPa | 1004.7
886.2 kPa | 1004.6
895.6 kPa | 1004.7
905.1 kPa | 1004.6
916.6 kPa | 1004.8
926.7 kPa | 1004.6
936.4 kPa | 1004.6
948.2 kPa | 1004.6
958.6 kPa | 1004.7
969.1 kPa | 1004.8
979.3 kPa | 1004.6
989.7 kPa | 1004.8
1001.9 kPa | 1004.8
1012 kPa | 1004.7
1024.5 kPa | 1004.7
1035.1 kPa | 1004.8
1045.3 kPa | 1004.6
1055.6 kPa | 1004.8
1066.1 kPa | 1004.7
1078.8 kPa | 1004.6
1089.1 kPa | 1004.8
1099.8 kPa | 1004.8
1113 kPa | 1004.8
1123.6 kPa | 1004.9
1134.7 kPa | 1004.8
1147.6 kPa | 1004.7
1158.7 kPa | 1004.7
1170 kPa | 1004.8
1183.6 kPa | 1004.9
1194.7 kPa | 1004.7
1206.3 kPa | 1004.9
1218.1 kPa | 1004.8
1229.9 kPa | 1004.9
1241.6 kPa | 1004.9
1258.7 kPa | 1005
1270.9 kPa | 1004.9
1283.6 kPa | 1004.8
1298.2 kPa | 1004.8
1310.3 kPa | 1004.8
1322.8 kPa | 1004.8
1338.1 kPa | 1004.9
1351.5 kPa | 1004.8
1364.1 kPa | 1004.9
1377 kPa | 1004.9
1393.1 kPa | 1004.8
1406.3 kPa | 1005
1420 kPa | 1004.9
1433.4 kPa | 1005
1449.5 kPa | 1005
1462.7 kPa | 1005
1476.5 kPa | 1004.8
1492.4 kPa | 1005
